From US20020142033A1, “Method for treating incontinence” (priority 1998, published 2002)

Conditions: human, in vivo

## CCNCC#CCOC(=O)C(O)(c1ccccc1)C1CCCCC1 (stereo not shown) [desethyloxybutynin]
  t½ of DESOXY compared to OXY: shorter t½ life compared to OXY
